Data published in DBAASP.
≈ marks a conversion by molar mass, not a printed value. Where “and” joins values, the source holds several entries; their conditions need not be identical. Equal values may be shown once.

Legend:
Test in all cases: ≥ marks a high value that may be exact or a test limit, other limits are often not marked, values filed in µg/mL are converted to µM
[1] = tested on: Bacillus anthracis Sterne 34F2
[2] = tested on: Bacillus subtilis var. niger ATCC 9372
Escherichia coli K91BK = tested on: Escherichia coli K91BK
[3] = tested on: Pectobacterium carotovorum subsp. carotovorum DSM 30168
[4] = tested on: Pseudomonas corrugata DSM 7228
[5] = tested on: Pseudomonas syringae pv. tomato DC3000
[6] = tested on: Pseudomonas syringae pv. syringae DSM 10604
[7] = tested on: Clavibacter michiganensis subsp. michiganensis DSM 46294
[8] = tested on: Staphylococcus aureus 90857
[9] = tested on: Xanthomonas vesicatoria DSM 50861
[10] = tested on: Staphylococcus aureus ATCC 25923
[11] = tested on: Escherichia coli BW25113 ΔsbmA
[12] = tested on: Escherichia coli ATCC 25922
Escherichia coli BW25113 = tested on: Escherichia coli BW25113
[13] = tested on: Pseudomonas aeruginosa ATCC 27853
[14] = tested on: Klebsiella pneumoniae ATCC 700603
[15] = tested on: Acinetobacter baumannii ATCC 19606
[16] = tested on: Salmonella enterica subsp. enterica serovar Typhimurium ATCC 14028
[17] = tested on: Listeria monocytogenes LO28
[18] = tested on: Cronobacter sakazakii DPC 6440

CC[C@H](C)[C@H](NC(=O)[C@H](CCCCN)NC(=O)[C@H](CO)NC(=O)[C@H](Cc1ccccc1)NC(=O)[C@H](CC(C)C)NC(=O)[C@H](CCCCN)NC(=O)[C@H](CCC(=O)O)NC(=O)[C@H](CC(C)C)NC(=O)[C@H](CCCN=C(N)N)NC(=O)[C@H](CCCCN)NC(=O)[C@H](Cc1ccccc1)NC(C)=O)C(=O)N[C@@H](Cc1c[nH]c2ccccc12)C(=O)N[C@@H](CC(N)=O)C(=O)N[C@@H](Cc1c[nH]c2ccccc12)C(=O)N[C@@H](CCCCN)C(N)=O [FKRLEKLFSKIWNWK]
MIC [1]: 14.9 µM (≈ 30.8 µg/mL)
MIC [2]: 6.25 µM (≈ 12.9 µg/mL)
MIC (Escherichia coli K91BK): ≥ 100 µM

CC(=O)N[C@@H](CCCCN)C(=O)N[C@@H](CC(C)C)C(=O)N[C@@H](Cc1c[nH]c2ccccc12)C(=O)N[C@@H](CCCCN)C(=O)N[C@@H](CCCCN)C(=O)N[C@@H](Cc1c[nH]c2ccccc12)C(=O)N[C@@H](CCCCN)C(=O)N[C@@H](CCCCN)C(=O)N[C@@H](Cc1c[nH]c2ccccc12)C(=O)N[C@@H](CC(C)C)C(=O)N[C@@H](CCCCN)C(N)=O [KLWKKWKKWLK]
MIC [1]: ≥ 100 µM
MIC [2]: 6.25 µM (≈ 10.1 µg/mL)
MIC (Escherichia coli K91BK): ≥ 100 µM

CC[C@H](C)[C@H](NC(=O)[C@H](CCCN=C(N)N)NC(=O)[C@H](CCCN=C(N)N)NC(=O)[C@H](CC(C)C)NC(=O)[C@H](CC(N)=O)NC(=O)[C@H](CCCCN)NC(C)=O)C(=O)N[C@H](C(=O)N[C@@H](CCCN=C(N)N)C(=O)N[C@@H](CCCCN)C(=O)N[C@H](C(=O)N[C@H](C(=O)N[C@@H](Cc1cnc[nH]1)C(=O)N[C@H](C(=O)N[C@H](C(=O)N[C@@H](CCCCN)C(=O)N[C@@H](CCCCN)C(=O)N[C@@H](Cc1ccc(O)cc1)C(=O)NCC(N)=O)[C@@H](C)CC)[C@@H](C)CC)[C@@H](C)CC)[C@@H](C)CC)[C@@H](C)O [KNLRRITRKIIHIIKKYG]
MIC [1]: 25 µM (≈ 57.3 µg/mL)
MIC [2]: 1.56 µM (≈ 3.58 µg/mL)
MIC (Escherichia coli K91BK): ≥ 100 µM

CC[C@H](C)[C@H](NC(=O)[C@H](CC(C)C)NC(=O)[C@H](CCCN=C(N)N)NC(=O)[C@H](CCCN=C(N)N)NC(=O)[C@H](CC(C)C)NC(=O)[C@@H](NC(=O)[C@H](CCCN=C(N)N)NC(=O)[C@H](CCCN=C(N)N)NC(=O)[C@@H](NC(=O)[C@@H](NC(=O)[C@H](CCCN=C(N)N)NC(=O)[C@@H](N)CC(C)C)[C@@H](C)CC)[C@@H](C)CC)[C@@H](C)CC)C(N)=O [LRIIRRILRRLI]
MIC [3]: 1.57 µM (≈ 2.5 µg/mL)
MIC [4]: 1.57 µM (≈ 2.5 µg/mL)
MIC [5]: 0.628 µM (≈ 0.999 µg/mL)
MIC [6]: 1.57 µM (≈ 2.5 µg/mL)
MIC [7]: 1.57 µM (≈ 2.5 µg/mL)
MIC [8]: 25 µM (≈ 39.8 µg/mL)
MIC [9]: 0.628 µM (≈ 0.999 µg/mL)

CC[C@H](C)[C@H](NC(=O)[C@H](CCCCN)NC(=O)[C@H](CCCCN)NC(=O)[C@H](CC(C)C)NC(=O)[C@H](CCCCN)NC(=O)[C@H](CCCN=C(N)N)NC(=O)[C@@H](N)CC(C)C)C(=O)N[C@@H](CC(C)C)C(=O)N[C@@H](CCCCN)C(=O)N[C@@H](CCCCN)C(=O)N[C@@H](CC(C)C)C(=O)N[C@@H](Cc1ccccc1)C(N)=O [LRKLKKILKKLF]
MIC [3]: 1.64 µM (≈ 2.5 µg/mL)
MIC [4]: 0.164 µM (≈ 0.25 µg/mL)
MIC [5]: 0.327 µM (≈ 0.5 µg/mL)
MIC [6]: 0.164 µM (≈ 0.25 µg/mL)
MIC [7]: 0.164 µM (≈ 0.25 µg/mL)
MIC [8]: 6.25 µM (≈ 9.54 µg/mL)
MIC [9]: 0.0654 µM (≈ 0.0999 µg/mL)

CC[C@H](C)[C@H](NC(=O)[C@@H]1CCCN1C(=O)[C@@H]1CCCN1C(=O)[C@H](CCCN=C(N)N)NC(=O)[C@H](Cc1ccccc1)NC(=O)[C@@H](N)CCCN=C(N)N)C(=O)N[C@@H](CCCN=C(N)N)C(=O)N[C@@H](CCCN=C(N)N)C(=O)N1CCC[C@H]1C(=O)N1CCC[C@H]1C(=O)N[C@H](C(=O)N[C@@H](CCCN=C(N)N)C(=O)N1CCC[C@H]1C(=O)N1CCC[C@H]1C(=O)N[C@@H](Cc1ccccc1)C(=O)N[C@@H](Cc1ccc(O)cc1)C(=O)N1CCC[C@H]1C(=O)N1CCC[C@H]1C(=O)N[C@@H](Cc1ccccc1)C(=O)O)[C@@H](C)CC [RFRPPIRRPPIRPPFYPPF]
MIC [10]: > 64 µM
MIC [11]: ≥ 32 µM
MIC [12]: 12 µM (≈ 28.9 µg/mL)
MIC (Escherichia coli BW25113): 8 µM (≈ 19.3 µg/mL)
MIC [13]: > 64 µM
MIC [14]: > 64 µM
MIC [15]: 32 µM (≈ 77 µg/mL)
MIC [16]: 32 µM (≈ 77 µg/mL)

CC[C@H](C)[C@H](NC(=O)[C@@H](NC(=O)[C@H](CCCCN)NC(=O)[C@H](CCCCN)NC(=O)[C@@H](NC(=O)[C@@H](NC(=O)[C@H](CCCCN)NC(=O)[C@H](C)NC(=O)[C@H](CCCCN)NC(=O)[C@H](CCCCN)NC(=O)[C@H](CCCCN)NC(=O)[C@@H](N)CCCN=C(N)N)[C@@H](C)CC)[C@@H](C)CC)[C@@H](C)CC)C(N)=O [RKKKAKIIKKII]
MIC [3]: 6.82 µM (≈ 9.99 µg/mL)
MIC [4]: 6.82 µM (≈ 9.99 µg/mL)
MIC [5]: 6.82 µM (≈ 9.99 µg/mL)
MIC [6]: 0.682 µM (≈ 0.999 µg/mL)
MIC [7]: 6.82 µM (≈ 9.99 µg/mL)
MIC [8]: ≥ 62.5 µM
MIC [9]: 6.82 µM (≈ 9.99 µg/mL)

CC[C@H](C)[C@H](NC(=O)[C@@H](N)Cc1c[nH]c2ccccc12)C(=O)N[C@@H](CCC(N)=O)C(=O)N[C@@H](C)C(=O)N[C@@H](CCCCN)C(=O)N[C@H](C(=O)N[C@@H](CCCCN)C(=O)N[C@H](C(=O)N[C@H](C(=O)N1CCC[C@H]1C(=O)N[C@@H](Cc1ccc(O)cc1)C(=O)N[C@H](C(=O)N[C@@H](CCCN=C(N)N)C(=O)N[C@@H](Cc1ccc(O)cc1)C(=O)N[C@@H](CC(C)C)C(=O)O)C(C)C)[C@@H](C)CC)C(C)C)[C@@H](C)O [WIQAKTKVIPYVRYL]
MIC [17]: 9.77 µM (≈ 18.3 µg/mL)
MIC [18]: ≥ 39.1 µM

CC[C@H](C)[C@H](NC(=O)[C@@H](N)Cc1c[nH]c2ccccc12)C(=O)N[C@@H](CCC(N)=O)C(=O)N1CCC[C@H]1C(=O)N[C@@H](C)C(=O)N[C@H](C(=O)N[C@@H](CCCCN)C(=O)N[C@H](C(=O)N[C@H](C(=O)N1CCC[C@H]1C(=O)N[C@@H](Cc1ccc(O)cc1)C(=O)N[C@H](C(=O)N[C@@H](C)C(=O)N[C@@H](Cc1ccc(O)cc1)C(=O)N[C@@H](CC(C)C)C(=O)O)C(C)C)[C@@H](C)CC)C(C)C)[C@@H](C)O [WIQPATKVIPYVAYL]
MIC [17]: ≥ 156 µM
MIC [18]: ≥ 625 µM

CC[C@H](C)[C@H](NC(=O)[C@@H](N)Cc1c[nH]c2ccccc12)C(=O)N[C@@H](CCC(N)=O)C(=O)N1CCC[C@H]1C(=O)N[C@@H](CCCCN)C(=O)N[C@@H](C)C(=O)N[C@@H](CCCCN)C(=O)N[C@H](C(=O)N[C@H](C(=O)N1CCC[C@H]1C(=O)N[C@@H](Cc1ccc(O)cc1)C(=O)N[C@H](C(=O)N[C@@H](CCCN=C(N)N)C(=O)N[C@@H](Cc1ccc(O)cc1)C(=O)N[C@@H](CC(C)C)C(=O)O)C(C)C)[C@@H](C)CC)C(C)C [WIQPKAKVIPYVRYL]
MIC [17]: 19.5 µM (≈ 36.6 µg/mL)
MIC [18]: ≥ 78.1 µM

CC[C@H](C)[C@H](NC(=O)[C@@H](N)Cc1c[nH]c2ccccc12)C(=O)N[C@@H](CCC(N)=O)C(=O)N1CCC[C@H]1C(=O)N[C@@H](CCCCN)C(=O)N[C@H](C(=O)N[C@@H](CCCCN)C(=O)N[C@H](C(=O)N[C@H](C(=O)N1CCC[C@H]1C(=O)N[C@@H](Cc1ccc(O)cc1)C(=O)N[C@H](C(=O)N[C@@H](CCCN=C(N)N)C(=O)N[C@@H](Cc1ccc(O)cc1)C(=O)N[C@@H](CC(C)C)C(=O)O)C(C)C)[C@@H](C)CC)C(C)C)[C@@H](C)O [WIQPKTKVIPYVRYL]
MIC [17]: ≥ 39.1 µM
MIC [18]: ≥ 78.1 µM

CC[C@H](C)[C@H](NC(=O)[C@H](CCCN=C(N)N)NC(=O)[C@@H](N)Cc1c[nH]c2ccccc12)C(=O)N[C@@H](CCCN=C(N)N)C(=O)N1CCC[C@H]1C(=O)N[C@@H](CCCN=C(N)N)C(=O)N1CCC[C@H]1C(=O)N1CCC[C@H]1C(=O)N[C@@H](CCCN=C(N)N)C(=O)N[C@@H](CC(C)C)C(=O)N1CCC[C@H]1C(=O)N[C@@H](CCCN=C(N)N)C(=O)N[C@@H](Cc1c[nH]c2ccccc12)C(=O)N[C@@H](CCCN=C(N)N)C(=O)N1CCC[C@H]1C(=O)N[C@@H](CCCN=C(N)N)C(=O)O [WRIRPRPPRLPRWRPR]
MIC [10]: > 64 µM
MIC [11]: 16 µM and ≥ 32 µM
MIC [12]: 1.5 µM and 2 µM
MIC (Escherichia coli BW25113): 2 µM (≈ 4.39 µg/mL)
MIC [13]: > 64 µM
MIC [14]: 8 µM (≈ 17.6 µg/mL)
MIC [15]: 32 µM (≈ 70.3 µg/mL)
